From the Deep4Chem optical property database come the findings set out here.

The nature of the data set: solvent given as SMILES.

SMILES strings stand for the structures.

In the case of `CCc1c(C)c2n(c1C)[B-](F)(F)[N+]1=C(NCc3ccc(OC)cc3)C(SC#N)=CC1=C2C`, the absorption maximum reads like this: (in CC#N) 562 nm; (in CCCCCC) 572 nm; (in CCOC(C)=O) 565 nm; (in CO) 562 nm; (in ClCCl) 568 nm.
For `O=C1O[B-]2(OC1=O)OC(c1ccccc1)=CC(c1ccccc1)=[O+]2`, the absorption maximum reads like this: (in CC#N) 384 nm; (in ClC(Cl)(Cl)Cl) 384 nm.
On to `O=C(N/N=C/c1ccccc1O)c1ccccc1`, for which the absorption maximum is on record as 334 nm (in C1CCOC1); 333 nm (in CC#N); 415 nm (in CC(C)=O); 400 nm (in CCO); 397 nm (in CN(C)C=O); 329 nm (in CS(C)=O). Also, the absorption maximum (in ClCCl) turned out to be 330 nm.
Where the note is “in ClCCl”, `CCCc1cc2c(s1)-c1cc3c(cc1NB2c1ccccc1)-c1sc(CCC)cc1B(c1ccccc1)N3` gave an absorption maximum of 411 nm.
With `c1ccc(N(c2ccccc2)c2ccc3c(ccc4nc5ccc6cc(N(c7ccccc7)c7ccccc7)ccc6c5nc43)c2)cc1`, the absorption maximum is, setting by setting: (in C1CCCCC1) 471 nm; (in C1CCOC1) 474 nm; (in CN(C)C=O) 477 nm; (in Cc1ccccc1) 473 nm; (in ClCCl) 476 nm.
Compound `Cc1ccccc1C1CC(=O)Oc2c1c1nc3ccccc3nc1c1ccccc21` (centres undefined) returned an absorption maximum (in ClC(Cl)Cl) of 410 nm.
Consider `CC(C)(C)c1ccc(C#Cc2cc(C#Cc3ccc(C(C)(C)C)cc3)c(C#Cc3ccc(C(C)(C)C)cc3)c(C#Cc3ccc(C(C)(C)C)cc3)c2C#Cc2ccc(C(C)(C)C)cc2)cc1`, for which the absorption maximum (in ClCCl) came out at 373 nm.
Consider `CCCCCCc1ccc2c3c(ccc2c1)O[B-](c1ccccc1)(c1ccccc1)[N+](c1cc([N+]2=Cc4c(ccc5cc(CCCCCC)ccc45)O[B-]2(c2ccccc2)c2ccccc2)cc([N+]2=Cc4c(ccc5cc(CCCCCC)ccc45)O[B-]2(c2ccccc2)c2ccccc2)c1)=C3`, for which the absorption maximum runs as follows: (in C1CCOC1) 445 nm; (in CC#N) 440 nm; (in Cc1ccccc1) 453 nm; (in ClCCl) 450 nm.
`C(=C(c1ccccc1)c1ccccc1)c1ccc(C=C(c2ccccc2)c2ccccc2)cc1`: the absorption maximum (in C1CCOC1) stood at 352 nm.
Consider `CN(C)c1ccc(C(=O)Nc2cccc(Br)c2)cc1`, for which the absorption maximum (in C1CCCCC1) was 310 nm, the absorption maximum (in C1CCOC1) stood at 317 nm, the absorption maximum (in CC#N) is 318 nm and the absorption maximum (in CCOCC) is recorded as 312 nm.
Consider `C1=C2c3cc4ccccc4cc3C3=[N+]2[B-]2(Oc4ccccc43)Oc3ccccc3-c3c4cc5ccccc5cc4c1n32` (centres undefined), for which, under “in C1CCOC1”, the absorption maximum turned out to be 830 nm.
Where the note is “in ClCCl”, `c1ccc(C2=C(c3ccccc3)c3cccc4c3c(cc3nc5ccccc5nc34)O2)cc1` yielded an absorption maximum of 494 nm.
With `CCCCCCCCCCCCC(CCCCCCCCCC)Cn1c2cc(/C=C/C=C/c3nc4ccccc4s3)c3cccc4c5cccc6c(/C=C/C=C/c7nc8ccccc8s7)cc1c(c65)c2c34` (centres undefined), the absorption maximum reads like this: (in C1CCCCC1) 530 nm; (in CC#N) 528 nm; (in Cc1ccccc1) 538 nm; (in ClCCl) 538 nm.
Turning to `CCCCCCCCC1(CCCCCCCC)c2cc(-c3ccc(C#N)cc3)ccc2-c2ccc(-c3ccc(C#N)cc3)cc21`, the absorption maximum (in ClC(Cl)Cl) is on record as 341 nm.
For the compound `Cc1cc(O)c(C(=O)/C=C/c2ccc(O)c(O)c2)c(=O)o1`, the absorption maximum runs as follows: (in CC#N) 390 nm; (in ClCCl) 387 nm.
On to `c1ccc2c(c1)-c1cc(-n3c4ccccc4c4ccccc43)ccc1C21c2ccccc2-n2c3ccccc3c3cccc1c32` (centres undefined), for which, where the note is “in ClCCl”, the absorption maximum was determined as 339 nm.
In turn, `Cc1ccc(N2C(c3ccccc3[NH-])=[NH+]C(c3ccccc3)C2c2ccccc2)cc1` (centres undefined) had an absorption maximum (in Cc1ccccc1) of 328 nm.
On to `NCc1ccc2ccc3cccc4ccc1c2c34`, for which the absorption maximum (in CC#N) is 341 nm, the absorption maximum (in CO) came to 340 nm and the absorption maximum (in ClC(Cl)Cl) was 344 nm.
The compound `CCCCCCCCCCCCOc1cc2c3c(ccc4c5c(OC6CCC(C(C)(C)C)CC6)cc6c7c(ccc(c1c34)c75)C(=O)N(C1CCCCC1)C6=O)C(=O)N(C1CCCCC1)C2=O` (centres undefined) gave an absorption maximum (in ClC(Cl)Cl) of 558 nm.
Compound `CC(C)(C)c1ccc2c(c1)c1cc(C(C)(C)C)ccc1n2-c1ccc(N(c2ccc(-c3ccc(-c4ccc(N(c5ccc(-n6c7ccc(C(C)(C)C)cc7c7cc(C(C)(C)C)ccc76)cc5)c5ccc(-n6c7ccc(C(C)(C)C)cc7c7cc(C(C)(C)C)ccc76)cc5)cc4)s3)cc2)c2ccc(-n3c4ccc(C(C)(C)C)cc4c4cc(C(C)(C)C)ccc43)cc2)cc1` came in with an absorption maximum (in ClCCl) of 396 nm.
As to `C[P+]1(c2ccccc2)c2ccccc2-c2sc3ccccc3c21` (centres undefined), the absorption maximum reads like this: (in CC#N) 335 nm; (in CCO) 336 nm; (in ClCCl) 340 nm.
For the setting “in ClCCl”, `CC1=C(C#Cc2ccc(B(c3c(C)cc(C)cc3C)c3c(C)cc(C)cc3C)cc2)C(C)=[N+]2C1=C(c1ccccc1)c1c(C)c(C#Cc3ccc(B(c4c(C)cc(C)cc4C)c4c(C)cc(C)cc4C)cc3)c(C)n1[B-]2(F)F` yielded an absorption maximum of 576 nm.
In the case of `c1ccc2c(c1)c1ccccc1c1ccccc21`, for the setting “in ClCCl”, the absorption maximum was 286 nm.
Consider `Cc1cc(O)c(C(C)C)cc1/N=C/c1ccc([N+](=O)[O-])cc1`, for which the absorption maximum stood at 385 nm (in C1CCCCC1); 402 nm (in C1CCOC1); 393 nm (in C1COCCO1); 392 nm (in CC#N); 407 nm (in CC(C)(C)O); 404 nm (in CC(C)O). Further, the absorption maximum by setting is: (in CCCCCC) 383 nm; (in CCCCO) 405 nm; (in CCO) 402 nm; (in CCOC(C)=O) 397 nm; (in CN(C)C=O) 407 nm; (in CO) 399 nm. For the same compound, the absorption maximum stood at 410 nm (in CS(C)=O); 398 nm (in ClC(Cl)Cl); 392 nm (in ClCCl); 395 nm (in O); 401 nm (in OCCO).
`COc1cc(/C=C/CO)ccc1O` came in with an absorption maximum (in O) of 295 nm.
For `COc1cc2c3c4c(c5ccc(C(C)(C)C)cc5c5cc(C(C)(C)C)cc(c2c(OC)c1OC)c45)=[N+]1C3=Nc2c3c4cc(OC)c(OC)c(OC)c4c4cc(C(C)(C)C)cc5c6cc(C(C)(C)C)ccc6c(c3c54)n2[B-]1(F)F`, the absorption maximum (in Cc1ccccc1) came out at 826 nm.
Take `C(#Cc1ccccc1)C(C#Cc1ccccc1)=Cc1ccc(C=C(C#Cc2ccccc2)C#Cc2ccccc2)cc1`: the absorption maximum (in ClC(Cl)Cl) was 416 nm.
In turn, `CC(C)Oc1ccc(C#Cc2ccc3ccc(=O)oc3c2)cc1` displayed an absorption maximum (in CC#N) of 310 nm.
As to `CCN1/C(=C\c2c(-c3ccc(N(C)C)cc3)c(=O)c2=O)C=Cc2ccccc21`, the absorption maximum (in C1CCCCC1) is given as 359 nm, the absorption maximum (in Cc1ccccc1) came out at 362 nm and the absorption maximum (in ClCCl) is 509 nm.
`CCCCCCOc1ccc2oc3c(c2c1)=CC1=C(c2ccccc2C)c2cc4c5cc(OCCCCCC)ccc5oc4n2[B-](F)(F)[N+]=31` returned an absorption maximum (in C1CCCCC1) of 592 nm, an absorption maximum (in CCOC(C)=O) of 587 nm and an absorption maximum (in CO) of 585 nm.
Where the note is “in ClCCl”, `CCOC(=O)c1ccc(C2CC(c3cccc4ccccc34)=NN2c2ccc(Cl)cc2)cc1` (centres undefined) returned an absorption maximum of 378 nm.
As to `CCCCn1c2ccc(-c3ccc(C(F)(F)F)cc3)cc2c2ccc3c4cc(-c5ccc(C(F)(F)F)cc5)ccc4n(CCCC)c3c21`, where the note is “in ClC(Cl)Cl”, the absorption maximum came out at 301 nm.
As for `c1cc2ccc3[o+]c4ccc5cccc6c7cccc8c(c1)c2c3c(c87)c4c56`, the absorption maximum (in ClCCl) turned out to be 573 nm.
On to `COc1ccc(-c2cc(-c3ccc(C#N)cc3)nn2C)cc1`, for which the absorption maximum (in ClCCl) was found to be 281 nm.
`CCCCC1(CCCC)c2ccccc2-c2ccc(-c3c4c(nc5ccccc35)-c3cc5c(cc3CC4)-c3nc4ccccc4c(-c4ccc6c(c4)C(CCCC)(CCCC)c4ccccc4-6)c3CC5)cc21` showed an absorption maximum (in ClC(Cl)Cl) of 377 nm.
For `O=C1c2cc(-n3c4ccccc4c4ccccc43)c(-n3c4ccccc4c4ccccc43)cc2C(=O)N1c1ccccc1`, the absorption maximum (in Cc1ccccc1) turned out to be 388 nm.
Take `O=C1C2=C(O[B-](F)(F)[n+]3c2ccc2ccccc23)c2ccc(N3CCOCC3)c3cccc1c23`: the absorption maximum was 464 nm (in C1CCOC1); 468 nm (in CC#N); 460 nm (in CCO); 461 nm (in CO); 468 nm (in ClCCl).
In the case of `O=C1c2cccc3c(NCc4ccccn4)c4ccccc4c(c23)C(=O)N1Cc1ccccn1`, the absorption maximum came to 520 nm (in C1CCOC1); 497 nm (in CCCCCC); 533 nm (in CCO); 517 nm (in Cc1ccccc1); 527 nm (in ClCCl).
As to `F[B-]1(F)n2c(NCc3ccccc3)ccc2C(c2c(Cl)cccc2Cl)=C2C=CC(NCc3ccccc3)=[N+]21`, the absorption maximum turned out to be 578 nm (in CC#N); 581 nm (in CCCCCC); 580 nm (in CCOC(C)=O); 579 nm (in CO); 581 nm (in ClCCl).
Consider `COc1ccc(-c2c3cc4cc(C)sc4cc3c(C#Cc3ccccc3)c3cc4cc(C)sc4cc23)cc1`, for which the absorption maximum (in ClCCl) was 539 nm.
Regarding `O=C(c1ccc(-n2c3ccccc3c3cc(-n4c5ccccc5c5ccccc54)ccc32)cc1)c1ccc(-n2c3ccccc3c3cc(-n4c5ccccc5c5ccccc54)ccc32)cn1`, under “in Cc1ccccc1”, the absorption maximum is 345 nm.
For the compound `CN(C)c1ccc(C(=Cc2ccc(/C=C(\C#N)c3ccccc3)cc2)c2ccc(N(C)C)cc2)cc1`, under “in C1CCOC1”, the absorption maximum is given as 436 nm.
Take `C(/C=C/c1ccc(-n2c3ccccc3c3ccccc32)cc1)=C\c1ccncc1`: the absorption maximum is, setting by setting: (in C1COCCO1) 356 nm; (in CC#N) 350 nm; (in CCCCCCC) 360 nm; (in CO) 353 nm.
As for `O=P1(c2ccccc2)C(c2ccccc2)=Cc2ccccc21` (centres undefined), the absorption maximum stood at 347 nm (in C1CCOC1) and 350 nm (in ClCCl).
